Experimental data: patent publication US20130303535A1, “NOVEL BICYCLIC HETEROCYCLIC COMPOUND” (priority 2008, published 2013)

These compounds were tested against TTX resistant Na channel of human SNS-expressing cell (SNS) (Homo sapiens, UniProt Q9Y5Y9) (assay: cell-based). Settings: CHO-K1, compound concentration 12.5 μM; read-out: SNS inhibitory rate (%).
Chain of TTX resistant Na channel of human SNS-expressing cell (SNS) (Q9Y5Y9 whole entry, looked up): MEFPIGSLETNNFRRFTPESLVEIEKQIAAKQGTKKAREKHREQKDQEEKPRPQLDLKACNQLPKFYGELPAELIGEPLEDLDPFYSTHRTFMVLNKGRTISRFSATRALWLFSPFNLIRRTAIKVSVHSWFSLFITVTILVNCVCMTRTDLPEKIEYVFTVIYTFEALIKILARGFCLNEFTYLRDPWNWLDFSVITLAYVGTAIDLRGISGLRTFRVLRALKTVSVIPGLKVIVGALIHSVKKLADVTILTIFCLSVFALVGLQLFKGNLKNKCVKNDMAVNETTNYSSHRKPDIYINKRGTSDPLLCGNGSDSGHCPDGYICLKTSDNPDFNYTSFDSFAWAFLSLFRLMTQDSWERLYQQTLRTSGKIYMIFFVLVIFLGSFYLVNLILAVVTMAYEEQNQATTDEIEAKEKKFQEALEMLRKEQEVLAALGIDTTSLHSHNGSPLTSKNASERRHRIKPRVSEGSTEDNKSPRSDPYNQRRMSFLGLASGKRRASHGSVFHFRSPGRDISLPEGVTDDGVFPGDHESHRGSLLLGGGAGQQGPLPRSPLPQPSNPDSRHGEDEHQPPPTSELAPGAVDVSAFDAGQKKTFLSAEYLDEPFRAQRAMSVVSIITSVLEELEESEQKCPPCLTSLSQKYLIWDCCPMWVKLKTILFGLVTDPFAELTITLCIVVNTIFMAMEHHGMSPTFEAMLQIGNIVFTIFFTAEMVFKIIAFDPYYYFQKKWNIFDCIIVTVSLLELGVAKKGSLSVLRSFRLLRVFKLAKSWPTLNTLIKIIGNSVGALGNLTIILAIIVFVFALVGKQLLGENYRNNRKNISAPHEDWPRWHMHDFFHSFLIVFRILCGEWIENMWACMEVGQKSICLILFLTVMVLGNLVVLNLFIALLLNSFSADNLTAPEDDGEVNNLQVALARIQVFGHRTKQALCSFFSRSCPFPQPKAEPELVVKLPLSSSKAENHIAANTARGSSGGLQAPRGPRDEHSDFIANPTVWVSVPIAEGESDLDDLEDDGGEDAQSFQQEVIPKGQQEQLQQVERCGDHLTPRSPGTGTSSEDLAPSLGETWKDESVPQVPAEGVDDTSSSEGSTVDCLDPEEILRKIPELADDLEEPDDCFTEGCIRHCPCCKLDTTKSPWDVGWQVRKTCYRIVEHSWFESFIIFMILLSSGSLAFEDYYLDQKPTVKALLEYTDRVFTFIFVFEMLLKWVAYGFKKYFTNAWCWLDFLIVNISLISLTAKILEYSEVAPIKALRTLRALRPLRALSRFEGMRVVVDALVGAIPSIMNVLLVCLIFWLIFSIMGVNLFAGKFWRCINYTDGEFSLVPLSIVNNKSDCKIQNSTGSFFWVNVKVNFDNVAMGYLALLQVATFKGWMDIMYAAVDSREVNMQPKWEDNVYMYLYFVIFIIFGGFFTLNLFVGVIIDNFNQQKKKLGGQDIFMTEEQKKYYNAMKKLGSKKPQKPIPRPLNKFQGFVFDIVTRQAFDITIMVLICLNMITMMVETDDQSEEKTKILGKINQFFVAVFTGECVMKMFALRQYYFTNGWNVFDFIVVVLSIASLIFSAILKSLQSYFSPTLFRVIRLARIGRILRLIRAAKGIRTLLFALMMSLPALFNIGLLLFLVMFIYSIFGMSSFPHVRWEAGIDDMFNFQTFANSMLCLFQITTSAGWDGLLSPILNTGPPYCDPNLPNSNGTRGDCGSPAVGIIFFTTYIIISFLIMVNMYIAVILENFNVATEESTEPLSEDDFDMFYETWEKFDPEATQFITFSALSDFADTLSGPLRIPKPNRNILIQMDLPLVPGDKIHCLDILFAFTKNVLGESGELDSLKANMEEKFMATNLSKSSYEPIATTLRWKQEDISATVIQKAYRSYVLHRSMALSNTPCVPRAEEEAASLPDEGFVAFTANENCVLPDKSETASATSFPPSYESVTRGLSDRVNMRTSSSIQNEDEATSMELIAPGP

Row | Compound | inhibition at 12.5 µM [%]
1 | CCOCCn1c(CN[C@@H](C)C(N)=O)nc2ccc(Oc3ccc(CC)cc3)cc21 [Example 102] | 96.3
2 | NC(=O)CNCc1nc2ccc(Oc3ccc(F)cc3)cc2n1C1CCOCC1 [Example 65] | 47.8
3 | NC(=O)CNCc1nc2ccc(Oc3ccccc3)cc2n1C1CCCC1 [Example 25] | 0
4 | CCOCCn1c(CN[C@@H](C)C(N)=O)nc2ccc(Oc3ccc(OC(F)(F)F)cc3)cc21 [Example 43] | 61
5 | CCn1c(CN[C@@H](C)C(N)=O)nc2ccc(Oc3ccc(F)cc3)cc21 [Example 139] | 96
6 | CCOCCn1c(CN[C@@H](C)C(=O)NCCN2CCOCC2)nc2ccc(Oc3ccc(F)cc3)cc21 [Example 89] | 83
7 | CCOCCn1c(CN[C@@H](C)C(N)=O)nc2ccc(Oc3cccc(Cl)c3)cc21 [Example 29] | 27
8 | CCOCCn1c(CNC(C)(C)C(N)=O)nc2ccc(-c3ccc(F)cc3OC)cc21 [Example 174] | 33.4
9 | C[C@H](NCc1nc2ccc(Oc3ccc(F)cc3F)cc2n1CC(C)(C)O)C(N)=O [Example 105] | 75.1
10 | CCOCCn1c(CN[C@H](C)C(N)=O)nc2ccc(Oc3ccc(F)cc3)cc21 [Example 54] | 95.7
11 | C[C@H](NCc1nc2ccc(Oc3ccc(F)cc3F)cc2n1C1CC1)C(N)=O [Example 99] | 65.4
12 | CCOCCn1c(CNC(C)(C)C(N)=O)nc2ccc(Oc3ccccc3Cl)cc21 [Example 32] | 91.2
13 | CCOCCn1c(CN[C@@H](C)C(N)=O)nc2ccc(-c3ccc(C)cc3C)cc21 [Example 159] | 96.1
14 | CCOCCn1c(CN[C@@H](C)C(N)=O)nc2cc(Cl)c(Oc3ccc(F)cc3)cc21 [Example 118, N^2-{[5-chloro-1-(2-ethoxyethyl)-6-(4-fluorophenoxy)-1H-benzimidazol-2-yl]methyl}-L-alaninamide] | 64.5
15 | CCn1c(CNC(C)(C)C(N)=O)nc2ccc(Oc3ccc(C)cc3)cc21 [Example 135] | 57.8
16 | CCOCCn1c(CN[C@@H](C)C(N)=O)nc2ccc(Oc3ccc(C(C)C)cc3)cc21 [Example 94] | 63.9
17 | CCOCCn1c(CN[C@@H](C)C(=O)NCCOC)nc2ccc(Oc3ccc(F)cc3)cc21 [Example 88] | 83.5
18 | COCCCn1c(CNC(C)(C)C(N)=O)nc2ccc(Oc3ccc(C)cc3)cc21 [Example 142] | 47.9
19 | CCOCCn1c(CNCC(N)=O)nc2ccc(-c3ccc(Cl)cc3)cc21 [Example 72] | 7.3
20 | CCOCCn1c(CNC(C)(C)C(N)=O)nc2ccc(-c3ccc(F)c(OC)c3)cc21 [Example 175] | 5.9
